These results are taken from the SangsterLogP compilation.

The data set is described as follows: method code SF-AS, from DOI: 10.1002/(sici)1521-3897(199907)341:5<499::aid-prac499>3.0.co;2-7. The conditions noted are these: pH 7.4.
Usually logD stands for lipophilicity at a set pH, counting ionised and neutral species. A high value points to higher lipophilicity. For the compound `Nc1nnnn1-c1ccc(Cl)cc1`, the logD was found to be 1.41.

With `CCOc1ccc(-n2nnnc2N)cc1`, the logD worked out at 1.32. The logD values of the last two compounds are within 0.2 log units of each other.

In turn, `Cc1cccc(-n2nnnc2N)c1` gave a logD of 1.24.

Compound `COc1ccccc1-n1nnnc1N` registered a logD of 0.56.

`Nc1nnnn1-c1ccc(Br)cc1` showed a logD of 1.64.

Take `Nc1nnnn1-c1ccc2ccccc2c1`: the log distribution coefficient (logD) came out at 2.08.

Turning to `Nc1nnnn1-c1ccc(O)cc1`, the logD was 0.33.

In turn, `Nc1nnnn1-c1ccc([N+](=O)[O-])cc1` displayed a logD of 0.77.

As to `Nc1nnnn1-c1ccc(Cl)c(Cl)c1`, the logD came to 2.06.

`COc1ccc(-n2nnnc2N)cc1` showed a pH-dependent lipophilicity (logD) of 0.85.

`Nc1nnnn1-c1c(Cl)cccc1Cl` showed a logD of 1.56.

`Nc1nnnn1-c1cccc([N+](=O)[O-])c1` displayed a logD of 0.67.

The compound `Nc1nnnn1-c1ccc(F)cc1` returned a logD of 0.75.

As for `Nc1nnnn1-c1cccc(O)c1`, the logD came to 0.56.

`Nc1nnnn1-c1cccc(Cl)c1` gave a logD of 1.44.

`Nc1nnnn1-c1ccccc1` returned a logD of 0.69.

Take `Nc1nnnn1-c1cc(Cl)ccc1Cl`: the logD turned out to be 1.61.

With `Nc1nnnn1-c1ccc(Cl)cc1Cl`, the logD turned out to be 1.63.

Turning to `Cc1ccccc1-n1nnnc1N`, the logD turned out to be 0.93.

Turning to `Nc1nnnn1-c1cccc2ccccc12`, the logD turned out to be 1.72.

For `Cc1ccc(C)c(-n2nnnc2N)c1`, the logD came to 1.46.

Compound `Cc1ccc(-n2nnnc2N)cc1Cl` displayed a logD of 1.89.

As for `Nc1nnnn1-c1ccccc1Cl`, the logD amounted to 0.87.

In the case of `Nc1nnnn1-c1cc(Cl)c(Cl)cc1Cl`, the logD turned out to be 2.3.
